What was measured:
[1] = tested on: DLD-1; assay: Growth inhibition by MTT, DLD-1 colon cancer cells; type: cell-based, Human; details: Homo sapiens, DLD-1, 72 h exposure
Protocol: (§1) Growth inhibitory effects of NATURA and other agents on human cancer cells were determined by standard MTT (3-(4,5-dimethylthiazol-2-yl)-2,5-diphenyltetrazolium bromide Test) as described previously. Briefly, cancer cells grown exponentially were aliquoted into 96-well plates at a density of 5000 cells/200 μl per well in RPMI 1640 medium containing 10% FBS overnight. The cells in the plates were then exposed to series of dilution of indicated agent. After 72 h of incubation, 100 μl of the medium was removed from each of the wells and 50 μl of a 1 mg/ml solution of 3-(4,5-dimethylthiazol-2-yl)-2,5-diphenyltetrazolium bromide (MTT) was added to each well and the cells were incubated for additional 4 h. 200 μl of solution of 0.04 N HCl-isopropanol was added to each well to dissolve the black fromazan participates, and absorbance at 540 nm was measured on a 96-Well.
as §1, with “FIGS. 3-5 show the anticancer affects” for “Growth inhibitory effects”, “NATURA in MCF-7 breast cancer cells, DLD-1 colon cancer cells,” for “NATURA”, “LNCaP hormone-dependent prostate” for “other agents on human”, “cells. The” for “cells were determined by standard MTT (3-(4,5-dimethylthiazol-2-yl)-2,5-diphenyltetrazolium bromide Test) as described previously. Briefly,”, “fetal bovine serum (FBS)” for “FBS”, “96-Well Microplate Reader. Each experiment was repeated at least three times.” for “96-Well.”

[2] = tested on: Walker 256; assay: Anticancer activity against Walker 256 sarcoma
Protocol: Anticancer activity against Walker 256: Wistar rats with body weights between 50 to 55 grams, were randomly divided into several groups, ten of each, respectively. Approximately 2×10^6 of the Walker sarcoma cells were transplanted into a Wistar rat. Twenty-four hours after the transplantation, equal molar dosage (0.384 mM/kg) of NATURA or other sugar derivatives were given orally for 10 days. The animals in the control group were given 0.1 ml saline (drug vehicle, negative control) for the same periods of time as treated group. Twenty-four hours after the last administration, the animals were sacrificed and tumors were removed and weighed.
Briefly, C57 mice, body weight between 18 to 22 grams, and rat, body weight between 50 to 55 grams, were randomly divided into several groups, ten of each, respectively. Approximately 2×10^6 of Lewis cancer cells or Walker sarcoma cells were transplanted into mice or rat. […] The animals in the control group were given 0.1 ml saline (drug vehicle, negative control) for the same periods of time as treated group. The animals at end of the treatment were sacrificed and tumors were removed and weighed.
In order to assess the anticancer activities of NATURA and other sugar derivatives, Wistard rats transplanted with W256 were given the same molar of the tested compounds (0.384 mM/kg) for the same period of time (10 days).

[3] = tested on: LOVO; assay: Growth inhibition by MTT, LOVO colon cancer cells; type: cell-based, Human; details: Homo sapiens, LoVo; MTT, 72 h exposure; read-out: IC50 LOVO
Protocol: as §1

[4] = tested on: cyclin D1; assay: Cyclin D1 protein level by Western blot in HUVEC cells; type: cell-based, human; details: 24 hrs; for cyclin D1 protein: 15 μM; for expression of cyclin D1: 5.0 and 15 μM
Protocol: Meisoindigo and NATURA also significant inhibit expression of cyclin D1 in HUVEC cells. Exponentially growing HUVEC cells were exposed to 5.0 and 15 μM of Meisoindigo and NATURA, 24 hrs after the exposures, the cells were harvested, washed, and total proteins extracted for Western blot analysis using a monoclonal antibody specific against cyclin D1 (Dako). […] As a result, phosphorylation of a tumor suppressor protein Rb, a native substrate of cyclin D1 mediated cdks, was diminished (data not shown).
HUVEC cells grown exponentially were treated for 24 hrs with […] of Meisoindigo and NATURA. The cells were harvested, washed, and total proteins extracted for Western blot analysis as previously described using antibodies specifically against cyclin D1 (panel A), and b-actin (equal loading control, panel B), and detected by ECL detection kit (Amersham). The levels of cyclin D1 from Panel A were quantitated by an imagine densitometor and normalized by b-action (Panel C).

[5] = tested on: PC-3; assay: Growth inhibition by MTT, PC-3 prostate cancer cells; type: cell-based, Human; details: Homo sapiens, PC-3; MTT, 72 h exposure; read-out: IC50 PC-3
Protocol: as §1

[6] = tested on: human cancer cell lines; assay: Growth inhibition by MTT, all tested human cancer cell lines; type: cell-based; details: Homo sapiens, 72 h, read-out: IC50, growth inhibitory effects on all tested human cancer cell lines, range over breast, colon, prostate lines, three day exposure
Protocol: as §1

[7] = tested on: ML-1 cells; assay: Morphological differentiation of ML-1 cells; type: cell-based, human; details: 5 days after exposure
[8] = tested on: DU145; assay: Growth inhibition by MTT, DU145 prostate cancer cells; type: cell-based, Human; details: Homo sapiens, DU-145; MTT, 72 h exposure; read-out: IC50 DU145
Protocol: as §1

[9] = tested on: neuroblastoma N2A cells; assay: DNA fragmentation (ladder) in N2A neuroblastoma cells; type: cell-based, Mouse; details: 5 μM, 2 days
Protocol: Once cancer cells have been arrested at G1 phase by either derivatives of the invention, such as, Meisiondigo or NATURA, they will either differentiate or enter apoptosis. […] FIG. 8 confirms that Meisoindigo and NATURA cause apoptosis. The formation of DNA fragmentation (ladder) were measured, an indicator of cell apoptosis, in both LNCaP prostate and N2A neuroblastoma cells. To do this LNCaP and neuroblastoma N2A cells at exponential growth phase were exposed to indicated concentrations of Meisoindigo or NATURA or Taxol (20 nM, as a positive control) for 2 days. The cells were harvested, washed and DNA extracted. Approximately 2 μg per lane of DNA were subjected to 2% agarose gel electrophoresis.
Induction of Apoptosis: As we mentioned previously that cancer cells probably have two options after arrest at G1 phase, i.e. differentiation or apoptosis. […] To confirm our hypothesis and earlier observations, we measured poly(ADP-ribose) polymerase (PARP) degradation and the formation of DNA fragmentation (ladder), indicators of cell apoptosis, in both LNCaP prostate and N2A neuroblastoma cells. LNCaP and neuroblastoma N2A cells at exponential growth phase were exposed to indicated concentrations of Meisoindigo or NATURA or Taxol (20 nM, as a positive control) for 2 days. The cells were harvested, washed and DNA extracted. […]

[10] = tested on: MCF-7; assay: Growth inhibition by MTT, MCF-7 breast cancer cells; type: cell-based, Human; details: Homo sapiens, MCF7, 72 h exposure
Protocol: as §1
as §1, with “FIGS. 3-5 show the anticancer affects” for “Growth inhibitory effects”, “NATURA in MCF-7 breast cancer cells, DLD-1 colon cancer cells,” for “NATURA”, “LNCaP hormone-dependent prostate” for “other agents on human”, “cells. The” for “cells were determined by standard MTT (3-(4,5-dimethylthiazol-2-yl)-2,5-diphenyltetrazolium bromide Test) as described previously. Briefly,”, “fetal bovine serum (FBS)” for “FBS”, “96-Well Microplate Reader. Each experiment was repeated at least three times.” for “96-Well.”

[11] = Walker 256, rat, oral, Indirubin 100 × 9, Meisoindigo 106 × 9 mg/kgxd

## CN1C(=O)/C(=C2/C(=O)Nc3ccccc32)c2ccccc21 [Meisoindigo]
[1]
  IC50: 2.15 ± 0.17 µM
[2]; [11]
  Inhibition (%): 71.6 ± 3.1%
  Tumor Size X ± SD: 2.10 ± 0.17
[3]
  IC50: 5.76 ± 0.72 µM
[4]
  cyclin D1 protein: almost completely lost
  expression of cyclin D1: strongly inhibit
[5]
  IC50: 3.26 ± 0.51 µM
[6]
  IC50: 2.15 to 8.31 µM
[7]
  ML-1 cells differentiated morphologically: approximately 48%
[8]
  IC50: 8.31 ± 0.93 µM
[9]
  DNA ladders: sufficient to significantly induce DNA ladders
[10]
  IC50: 4.37 ± 0.31 µM

## CC(=O)OC1COC(N2C(=O)/C(=C3/C(=O)Nc4ccccc43)c3ccccc32)C(OC(C)=O)C1OC(C)=O [NATURA, 1-(β-D-O-Triacetyl-xylopyranosyl)-isoindigo]
[1]
  IC50: 1.64 ± 0.181 µM
[2]; Wistar rats, 0.384 mM/kg orally for 10 days
  Percent of Inhibition against Walker 256: 77%
[2]; Wistar rats, 0.384 mM/kg orally for 10 days; listed as Xyl-Ac*NATURA)
  Percent of Inhibition against Walker 256: 77.5%
[3]
  IC50: 4.31 ± 0.59 µM
[4]
  cyclin D1 protein: almost completely lost
  expression of cyclin D1: strongly inhibit
[5]
  IC50: 2.41 ± 0.39 µM
[6]
  IC50: 1.64 to 6.92 µM
[7]
  ML-1 cells differentiated morphologically: approximately 48%
[8]
  IC50: 6.92 ± 0.73 µM
[9]
  DNA ladders: sufficient to significantly induce DNA ladders
[10]
  IC50: 2.91 ± 0.28 µM

Source: patent US6933315B2, “Derivatives of isoindigo, indigo and indirubin and methods of treating cancer” (priority 2001, dated 2005)
